pEC50, pIC50: −log10 of the molar value. ≈ marks a conversion by molar mass, not a printed value. Where “and” joins values, the source holds several entries; their conditions need not be identical. Identical values can stand only once.
Key:
T. cruzi [1] = experiment: T. cruzi in vitro washout assay; type: cell-based, Trypanosoma cruzi; settings: for relapses, days post washout: 16-day treatment at 25-fold EC50, two replicates each
Description: T. cruzi in vitro washout assay
This assay was run as previously reported:
Marco M.; Miles T.J.; Naylor C.; Osuna-Cabello M.; Paterson C.; Read K.D.; Pinto E.G.; Riley
J.; Scullion P.; Shishikura Y.; Simeons F.; Stojanovski L.; Svensen N.; Thomas J.; Wyatt P.G.;
disubstituted piperazines for the treatment of Chagas disease. […]

T. cruzi [2] = experiment: Chronic mouse efficacy model of Chagas disease; type: in vivo, Balb/c mice
Experimental: All regulated procedures on living animals were carried out under the authority of a project license issued by the Home Office under the Animals (Scientific Procedures) Act 1986, as amended in 2012 (and in compliance with EU Directive EU/2010/63). Infected animals had access to food and water ad libitum and were housed under a 12-hour light/dark photoperiod.
Animals used in these experiments were female NMRI and Balb/c mice (Harlan, UK). […]
In vivo Mouse Efficacy Studies.
The T. cruzi chronic efficacy study was run in Balb/c mice as previously described:
M.D. Lewis, A. Fortes Francisco, M.C. Taylor, J.M. Kelly, A new experimental model for assessing drug efficacy against Trypanosoma cruzi infection based on highly sensitive in vivo imaging, J. Biomol. Screen 20 (1) (2015) 36–43

[3] = Mouse microsomal intrinsic clearance; type: in vitro ADME; settings: mouse liver microsomes, scaling 52.5 mg microsomal protein/g liver
Experimental: Mouse microsomal intrinsic clearance.
This assay was conducted as previously described:
J.; Reid, I. H.; Hill, A. P.;
(§1) were prepared by adding a volume (5 µL) of the 10 mM solution to a volume (195 µL) of […]

[4] = Kinetic aqueous solubility (UHPLC, PBS pH 7.4); type: physicochemical; settings: phosphate buffered saline, UHPLC UV/MS
Experimental: This assay was conducted as previously described: […]
as §1
format). Samples were then drawn through the filter using vacuum. The filtrate from the above […]
formic acid gradient elution. The UHPLC parameters are shown below:
Gradient program: Initial: 98% A, 2% B
Re-equilibration time: 0.6 min
Autosampler temperature: 25°C
Detector wavelength: 254 nm

ChromLogD = type: physicochemical; settings: pH 7.4; read-out: Chrom LogDpH7.4
Experimental: Chrom LogD was measured as previously described:
solubility and hydrophobicity. Drug Discov. Today 2010, 15, 648−655. […]

[5] = tested on: intracellular T. cruzi X10/7 A1 amastigotes
Human 20S proteasome = Human 20S proteasome (Homo sapiens, UniProt P28074+P49721); experiment: human proteasome assay (chymotrypsin-like activity, Suc-LLVY-Rho-110-DPro); settings: for Emax: read-out: Hs Prot Max Response (%), individual replicate
Experimental: T. cruzi and human proteasome assays
(§2) The T. cruzi proteasome was partially purified as described in the above reference and Human
(§3) 20S proteasome was purchased from Boston Biochem (now R&D Systems, catalogue number
(§4) a Tecan Fluent to titrate over 11 points in Labcyte Echo-compatible Greiner Bio-One 384 well
(§5) polypropylene microplates. Subsequently, 100 nl of test compound titrations were transferred
(§6) to black Greiner Bio-One low volume 384 well microplates using a Labcyte Echo acoustic
(§7) 50 mM HEPES pH 7.5, 150 mM sodium chloride, 5% Glycerol, 1 mM dithiothreitol, 1 mM
(§8) CHAPS in deionised, filtered water (all chemicals purchased from Sigma Aldrich). Human 20S
(§9) These enzyme solutions were prepared immediately prior to assay initiation and stored at 4 °C
(§10) To monitor the Chymotrypsin-like activity of the T. cruzi and Human 20S proteasome proteins
(§11) a self-quenched, Rhodamine 110-labelled peptide with the sequence Suc-LLVY-Rho-110-
(§12) DPro was used (prepared by Cambridge Research Biochemicals. Suc is succinyl, while DPro
(§13) refers to ᴅ-proline). The peptide was initially prepared from solid as a 10 mM solution in 100%
(§14) DMSO and stored at -20 °C. Prior to use in the assay, an aliquot was thawed at room
(§15) to twofold Km. For use with the Human 20S proteasome, the Suc-LLVY-Rho-110-DPro
(§16) peptide was diluted in assay buffer to a concentration equivalent to twofold Km, which for this
(§17) enzyme was 2 μM. The peptide solutions were protected from light and stored at 4 °C before
(§18) A Multidrop Micro (Thermo Fisher), using a low volume dispense cassette, was used to add
(§19) the assay solutions to the test compounds in the low volume 384-well microplates. Prior to
(§20) addition of proteasome solution, 5 μl of assay buffer was added to one column (containing 100
(§21) nl, 100% DMSO) to act as no enzyme control to mimic full inhibition. Subsequently, 5 μl of
(§22) proteasome solution (either T. cruzi or Human 20S) was added to all wells on the test
(§23) microplate apart from the column containing 5 μl assay buffer. The microplate was then spun
(§24) using a suitable bench top centrifuge for 1 minute at 1000 rpm, before incubation at room
(§25) Following the initial incubation, 5 μl of substrate solution was then added to all wells on the
(§26) test microplate using a Multidrop Micro equipped with a discrete low volume dispense cassette.
(§27) The test microplates were then spun for 10 seconds at 1000 rpm before being rapidly moved to
(§28) a multi-mode microplate reader, capable of monitoring fluorescence intensity. The microplate
(§29) reader used for these studies was a Tecan M1000 Pro, equipped with quad monochromators.
(§30) 530 ± 5 nm. A series of fluorescence intensity measurements were taken every 30 seconds for
(§31) Subsequently, the fluorescence intensity measurements (relative fluorescence units, RFU) were
(§32) fit to a simple linear regression model (y = A + Bx, where y refers to the fluorescence intensity
(§33) and x refers to the time in seconds) to determine the initial rate of reaction. The initial rate for
(§34) every compound concentration tested was then fit a 4-parameter logistic model: y = (A + (B -
(§35) A)) / (1 + (x / C)D), where y refers to the assay response, x refers to the inhibitor concentration,
(§36) A and B are the range values (minimum and maximum, respectively), C is the IC50 value and
(§37) D is the slope. Potency values were then reported as pIC50, which is the negative log of the
(§38) IC50 (on a molar scale). Data analysis was automated and carried out using the ActivityBase

T. cruzi proteasome = T. cruzi proteasome (Trypanosoma cruzi, UniProt V5BU39+V5C017); experiment: T. cruzi proteasome assay (chymotrypsin-like activity, Suc-LLVY-Rho-110-DPro); settings: for Tc Prot Hill Slope / Tc Prot Max Response (%): individual replicate; for Emax: read-out: Tc Prot Max Response (%), individual replicate
Chain of T. cruzi proteasome (V5BU39 entry or part of it): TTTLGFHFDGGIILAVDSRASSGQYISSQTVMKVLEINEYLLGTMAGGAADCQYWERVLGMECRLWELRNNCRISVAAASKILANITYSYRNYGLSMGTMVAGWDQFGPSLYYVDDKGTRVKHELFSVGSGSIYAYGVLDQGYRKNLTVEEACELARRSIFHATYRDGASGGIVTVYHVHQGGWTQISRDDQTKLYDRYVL
Chain of T. cruzi proteasome (V5C017 entry or part of it): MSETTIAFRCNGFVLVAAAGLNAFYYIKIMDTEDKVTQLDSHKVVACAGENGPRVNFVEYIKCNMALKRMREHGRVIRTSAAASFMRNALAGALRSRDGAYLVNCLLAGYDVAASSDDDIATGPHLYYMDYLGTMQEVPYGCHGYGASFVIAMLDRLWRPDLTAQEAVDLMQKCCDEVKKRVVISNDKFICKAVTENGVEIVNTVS
Experimental: T. cruzi and human proteasome assays
as §2, §3, §4, §5, §6, §7, §8, §9, §10, §11, §12, §13, §14, §15, §16, §17, §18, §19, §20, §21, §22, §23, §24, §25, §26, §27, §28, §29, §30, §31, §32, §33, §34, §35, §36, §37, §38

[6] = mean of at least three independent replicates
[7] = T. cruzi Prot pIC50, mean of at least three independent replicates
[8] = Tc Prot pIC50, individual replicate

SMILES | Mouse CLi [3] [mL/min/g] | solubility at 24 h [4] [µM] | chromatographic logD (ChromLogD) | pEC50 [5] | Emax [5] | pEC50 (host VERO cells) | Hs Prot Max Response (%) (Human 20S proteasome; individual replicate) | Hs Prot pIC50 (Human 20S proteasome; individual replicate) | Hs Prot pIC50 (Human 20S proteasome; [6]) | Emax (Human 20S proteasome) [%] | pIC50 (T. cruzi proteasome; [7]) | pIC50 (T. cruzi proteasome; [8]) | Tc Prot Hill Slope (T. cruzi proteasome) | Tc Prot Max Response (%) (T. cruzi proteasome) | Emax (T. cruzi proteasome) [%] | further results
O=C(Cn1ccnc1[N+](=O)[O-])NCc1ccccc1 [BNZ, benznidazole, reference compound] | – | – | – | – | – | – | – | – | – | – | – | – | – | – | – | relapses, days post washout (T. cruzi [1]): 31 days and 35 days; parasites relapsing on day (T. cruzi [1]; 8 days of treatment, 50-fold EC50): 21 days; cure (T. cruzi [2]; 100 mg/kg for 20 days, u.i.d): cured all mice; effect on parasite levels (T. cruzi [2]; dosed at 100 mg/kg): reduced parasite levels below detectable limits
O=C(Nc1ccc(F)c(C(=O)NC2CC2)c1)c1ccc(=O)n(Cc2ccccc2)n1 [Compound 9, 1-Benzyl-N-(3-(cyclopropylcarbamoyl)-4-fluorophenyl)-6-oxo-1,6-dihydropyridazine-3-carboxamide] | 6.7 | 218 (≈ 88.6 µg/mL) | 4.2 | 5.70 | 94% and 90% and 82% and 88% and 89% | < 4.30 | 8.53% and 11% and 6% | < 4 | <4 | 7 | 6.80 | 6.60 and 6.70 and 7.00 | 1.0 and 0.9 | 83% and 82% | 71 | Emax (host VERO cells): 29%
O=C(NC1CC1)c1ccc(F)c(NC(=O)c2ccc(=O)n(Cc3ccccc3)n2)c1 [Compound 10, 1-Benzyl-N-(5-(cyclopropylcarbamoyl)-2-fluorophenyl)-6-oxo-1,6-dihydropyridazine-3-carboxamide] | 3.1 | 1.5 (≈ 0.61 µg/mL) | 4.1 | < 4.30 | – | < 4.30 | 17% and 3% and 2.27% | < 4 | <4 | – | 5.80 | < 4.00 | 1.2 | 35% and 20% and 57% | – | –
COc1ccc(Cn2nc(C(=O)Nc3ccc(F)c(C(=O)NC4CC4)c3)ccc2=O)cc1 [Compound 12, N-[3-(Cyclopropylcarbamoyl)-4-fluorophenyl]-1-[(4-methoxyphenyl)methyl]-6-oxo-pyridazine-3-carboxamide] | 2.4 | 83 (≈ 36.2 µg/mL) | 4.2 | 6.40 and 6.50 and 6.30 | 56% and 99% and 66% | – | 8% and 12% and 18% | < 4 | <4 | – | 7.50 | 7.40 and 7.60 | 0.95 and 0.9 | 80% and 85% | 67 | –
COc1ccc(Cn2nc(C(=O)Nc3ccc(F)c(C(=O)NC4CC4)c3)ccc2=O)cc1Cl [Compound 14, 1-[(3-Chloro-4-methoxy-phenyl)methyl]-N-[3-(cyclopropylcarbamoyl)-4-fluorophenyl]-6-oxo-pyridazine-3-carboxamide] | 1.6 | < 1 | 4.7 | 7.30 and 7.40 and 7.20 | 92% and 94% and 90% and 93% | < 4.30 | 17% and 49% | < 4 | <4 | – | > 8.00 and 8.50 | 8.30 and 8.70 | 0.95 and 0.9 | 86% | 80 | –
COc1ccc(Cn2nc(C(=O)Nc3ccc(F)c(C(=O)NC4CC4)c3)ccc2=O)cc1C#N [Compound 16, 1-[(3-Cyano-4-methoxy-phenyl)methyl]-N-[3-(cyclopropylcarbamoyl)-4-fluorophenyl]-6-oxo-pyridazine-3-carboxamide] | 0.7 | < 1 | 4 | 6.80 and 6.70 and 6.90 and 7.00 | 91% and 90% and 102% and 87% and 92% | – | 5% | < 4 | <4 | 4 | 8.00 | 7.90 | 1.2 and 1.1 | 62% | 72 | –
O=C(Nc1ccc(F)c(C(=O)NC2CC2)c1)c1ccc(=O)n(Cc2ccc(Cl)c(F)c2)n1 [Compound 17, 1-[(4-Chloro-3-fluorophenyl)methyl]-N-[3-(cyclopropylcarbamoyl)-4-fluorophenyl]-6-oxo-pyridazine-3-carboxamide] | 4.8 | 21 (≈ 9.64 µg/mL) | 5.1 | 6.70 | 90% and 93% | < 4.30 | 21% and 22% and 27% and 11% | < 4 | <4 | – | 7.60 | 7.40 and 7.70 | 0.9 and 1.0 | 87% and 86% | 80 | –
COc1ncc(Cn2nc(C(=O)Nc3ccc(F)c(C(=O)NC4CC4)c3)ccc2=O)cc1F [Compound 18, N-(3-(Cyclopropylcarbamoyl)-4-fluorophenyl)-1-((5-fluoro-6-methoxypyridin-3-yl)methyl)-6-oxo-1,6-dihydropyridazine-3-carboxamide] | 3.5 | < 1 | 5.6 | 4.30 | 53% and 54% and 55% and 67% and 52% | < 4.30 | 13% | < 4 | <4 | 10 | 5.60 | 5.30 and 5.80 | 1.2 and 1.1 | 80% | 75 | –
COc1ccc(Cn2nc(C(=O)Nc3ccc(F)c(C(=O)NCCN4CCOCC4)c3)ccc2=O)cc1 [Compound 21, N-[4-Fluoro-3-(2-morpholinoethylcarbamoyl)phenyl]-1-[(4-methoxyphenyl)methyl]-6-oxo-pyridazine-3-carboxamide] | 3.6 | 200 (≈ 102 µg/mL) | 3.7 | 5.80 and 6.00 | 95% and 94% and 98% and 96% and 92% | < 4.30 | 12% | < 4 | <4 | 9 | 6.90 | 6.90 | 1.0 and 0.9 | 72% | 80 | –
CNC(=O)c1cc(NC(=O)c2ccc(=O)n(Cc3ccc(OC)cc3)n2)ccc1F [Compound 26, N-(4-Fluoro-3-(methylcarbamoyl)phenyl)-1-(4-methoxybenzyl)-6-oxo-1,6-dihydropyridazine-3-carboxamide] | – | – | – | 6.10 and 6.20 and 6.30 and 6.00 | 92% and 94% and 95% and 87% and 86% and 98% and 90% | < 4.30 | 21% and 3% and 0% | < 4 | <4 | – | – | 7.20 and 7.50 | 1.0 and 1.1 | 82% | 73 | relapses, days post washout (T. cruzi [1]): 35 days and 42 days; cure (T. cruzi [2]; 50 mg/kg b.i.d for 20 days): not curative; Emax (host VERO cells): 20%
